Among the data in ChEMBL document CHEMBL3739350, “Novel hydrazone moiety-bearing aminopyrimidines as selective inhibitors of epidermal growth factor receptor T790M mutant” (Eur J Med Chem, 2015) are IC50 values, retold here.

In one assay the test system is A549. The assay is described as follows: Antiproliferative activity against human A549 cells harboring wild type EGFR/k-Ras mutation after 72 hrs by MTT assay. The class given is functional, cell-based. The conditions noted are these: A549, 72 h.
In another assay the test system is NCI-H1975. The assay is described as follows: cells. It counts as functional, cell-based. The conditions noted are these: Homo sapiens, NCI-H1975, 72 h.
The next assay relates to HT-29. The assay is described as follows: cells. The class given is functional, cell-based. The settings on record: Homo sapiens, HT-29, 72 h.
Assay [1] deals with Epidermal growth factor receptor (Homo sapiens, UniProt P00533, L858R/T790M). The class given is protein assay.
Sequence of Epidermal growth factor receptor (Homo sapiens, UniProt P00533, L858R/T790M) (P00533 25-1210 T790M/L858R limits assumed): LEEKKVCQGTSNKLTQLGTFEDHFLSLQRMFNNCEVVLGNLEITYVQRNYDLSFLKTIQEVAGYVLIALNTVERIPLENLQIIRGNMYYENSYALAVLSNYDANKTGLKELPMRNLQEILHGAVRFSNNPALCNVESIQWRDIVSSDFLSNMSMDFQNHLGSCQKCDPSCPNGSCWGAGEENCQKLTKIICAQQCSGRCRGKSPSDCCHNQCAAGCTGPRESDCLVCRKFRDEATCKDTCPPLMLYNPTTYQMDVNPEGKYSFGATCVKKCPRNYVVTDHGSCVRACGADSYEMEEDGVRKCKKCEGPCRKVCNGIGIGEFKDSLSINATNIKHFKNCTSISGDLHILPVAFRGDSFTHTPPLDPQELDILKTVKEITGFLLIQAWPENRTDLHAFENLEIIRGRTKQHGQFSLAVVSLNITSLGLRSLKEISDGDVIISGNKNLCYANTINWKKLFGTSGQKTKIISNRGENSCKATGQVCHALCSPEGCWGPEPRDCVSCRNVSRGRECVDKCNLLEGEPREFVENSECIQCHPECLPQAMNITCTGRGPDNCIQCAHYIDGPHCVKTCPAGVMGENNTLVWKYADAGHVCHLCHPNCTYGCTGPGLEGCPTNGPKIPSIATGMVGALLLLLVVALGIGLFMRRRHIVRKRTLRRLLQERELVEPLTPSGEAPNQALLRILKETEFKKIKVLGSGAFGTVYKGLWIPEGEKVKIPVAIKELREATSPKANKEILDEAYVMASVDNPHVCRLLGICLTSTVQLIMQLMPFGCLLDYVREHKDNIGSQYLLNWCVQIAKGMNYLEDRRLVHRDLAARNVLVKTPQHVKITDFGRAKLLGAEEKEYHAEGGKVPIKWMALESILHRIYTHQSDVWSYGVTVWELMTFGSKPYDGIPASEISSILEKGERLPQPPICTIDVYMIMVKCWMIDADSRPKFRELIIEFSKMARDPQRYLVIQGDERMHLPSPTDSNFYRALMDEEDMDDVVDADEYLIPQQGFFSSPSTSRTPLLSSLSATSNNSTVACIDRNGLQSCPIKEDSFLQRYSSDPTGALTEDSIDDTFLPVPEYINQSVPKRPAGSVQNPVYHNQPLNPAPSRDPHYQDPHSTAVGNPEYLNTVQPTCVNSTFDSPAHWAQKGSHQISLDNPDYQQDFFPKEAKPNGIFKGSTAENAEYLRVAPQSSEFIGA
In assay [2] the target is Epidermal growth factor receptor (Homo sapiens, UniProt P00533, DELE746/T790M). It counts as protein assay.
Sequence of Epidermal growth factor receptor (Homo sapiens, UniProt P00533, DELE746/T790M) (P00533 whole entry E746del/T790M, looked up): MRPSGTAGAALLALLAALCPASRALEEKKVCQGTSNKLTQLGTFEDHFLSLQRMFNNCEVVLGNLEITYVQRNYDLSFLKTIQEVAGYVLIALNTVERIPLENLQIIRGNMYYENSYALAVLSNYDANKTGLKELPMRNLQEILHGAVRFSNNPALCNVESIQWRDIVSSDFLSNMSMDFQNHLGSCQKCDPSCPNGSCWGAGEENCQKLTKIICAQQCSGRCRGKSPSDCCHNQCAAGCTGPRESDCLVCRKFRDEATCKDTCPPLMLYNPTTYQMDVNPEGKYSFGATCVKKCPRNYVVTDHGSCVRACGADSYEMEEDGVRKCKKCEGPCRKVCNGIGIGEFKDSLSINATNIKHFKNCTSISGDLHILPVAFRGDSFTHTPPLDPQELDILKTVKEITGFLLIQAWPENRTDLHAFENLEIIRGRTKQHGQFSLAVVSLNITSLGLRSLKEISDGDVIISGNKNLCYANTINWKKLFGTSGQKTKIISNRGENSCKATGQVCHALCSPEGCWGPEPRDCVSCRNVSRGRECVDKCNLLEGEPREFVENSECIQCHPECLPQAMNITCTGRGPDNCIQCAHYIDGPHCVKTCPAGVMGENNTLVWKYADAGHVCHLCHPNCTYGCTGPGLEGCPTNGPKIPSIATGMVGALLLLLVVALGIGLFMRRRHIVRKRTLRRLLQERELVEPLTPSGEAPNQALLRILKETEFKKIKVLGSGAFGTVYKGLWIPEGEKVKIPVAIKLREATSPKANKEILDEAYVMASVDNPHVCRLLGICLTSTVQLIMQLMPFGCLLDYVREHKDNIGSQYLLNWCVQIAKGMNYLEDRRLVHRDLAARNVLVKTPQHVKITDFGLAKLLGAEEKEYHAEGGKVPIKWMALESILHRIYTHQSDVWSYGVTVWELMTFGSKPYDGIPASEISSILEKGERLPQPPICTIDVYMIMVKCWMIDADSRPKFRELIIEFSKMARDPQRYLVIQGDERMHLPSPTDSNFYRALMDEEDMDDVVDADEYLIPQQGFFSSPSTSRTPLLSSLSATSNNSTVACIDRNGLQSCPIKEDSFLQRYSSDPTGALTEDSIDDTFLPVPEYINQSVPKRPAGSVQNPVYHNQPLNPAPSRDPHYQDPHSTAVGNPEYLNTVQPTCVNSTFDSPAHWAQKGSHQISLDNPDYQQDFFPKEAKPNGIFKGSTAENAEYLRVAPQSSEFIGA
The target in assay [3] is Epidermal growth factor receptor (Homo sapiens, UniProt P00533, T790M). The class given is protein assay.
Sequence of Epidermal growth factor receptor (Homo sapiens, UniProt P00533, T790M) (P00533 25-1210 T790M limits assumed): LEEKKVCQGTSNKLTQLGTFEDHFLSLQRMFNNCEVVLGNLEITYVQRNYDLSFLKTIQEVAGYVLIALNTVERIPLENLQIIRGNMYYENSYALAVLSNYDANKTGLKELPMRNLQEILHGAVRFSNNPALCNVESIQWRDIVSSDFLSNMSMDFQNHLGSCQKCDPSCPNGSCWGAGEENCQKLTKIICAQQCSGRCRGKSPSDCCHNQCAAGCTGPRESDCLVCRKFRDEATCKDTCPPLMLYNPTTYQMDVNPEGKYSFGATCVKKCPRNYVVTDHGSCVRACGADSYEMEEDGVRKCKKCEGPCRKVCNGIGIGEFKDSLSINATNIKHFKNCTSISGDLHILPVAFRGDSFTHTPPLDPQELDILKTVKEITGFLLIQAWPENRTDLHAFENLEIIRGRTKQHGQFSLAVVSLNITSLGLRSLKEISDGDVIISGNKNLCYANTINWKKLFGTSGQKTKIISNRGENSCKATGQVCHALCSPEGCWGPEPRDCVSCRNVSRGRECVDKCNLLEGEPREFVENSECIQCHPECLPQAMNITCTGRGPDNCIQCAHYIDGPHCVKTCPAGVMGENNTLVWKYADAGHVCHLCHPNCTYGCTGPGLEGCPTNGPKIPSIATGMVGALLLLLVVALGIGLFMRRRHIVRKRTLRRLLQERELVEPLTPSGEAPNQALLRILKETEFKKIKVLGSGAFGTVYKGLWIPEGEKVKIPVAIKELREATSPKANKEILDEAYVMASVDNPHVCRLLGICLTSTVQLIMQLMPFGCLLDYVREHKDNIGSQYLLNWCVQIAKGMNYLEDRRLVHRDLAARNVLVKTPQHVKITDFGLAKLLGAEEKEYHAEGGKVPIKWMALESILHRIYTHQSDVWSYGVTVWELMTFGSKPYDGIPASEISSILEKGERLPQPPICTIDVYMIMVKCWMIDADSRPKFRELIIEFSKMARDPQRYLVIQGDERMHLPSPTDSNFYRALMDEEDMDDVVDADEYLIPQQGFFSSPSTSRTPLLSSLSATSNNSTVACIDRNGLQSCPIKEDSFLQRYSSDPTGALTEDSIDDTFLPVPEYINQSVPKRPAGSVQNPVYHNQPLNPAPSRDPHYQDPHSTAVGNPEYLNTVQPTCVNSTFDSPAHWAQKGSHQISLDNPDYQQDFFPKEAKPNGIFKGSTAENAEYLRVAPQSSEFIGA
In assay [4] the target is Epidermal growth factor receptor (Homo sapiens, UniProt P00533). The assay is described as follows: Inhibition of wild type recombinant human EGFR preincubated for 10 mins followed by FAM-labeled peptide/ATP addition measured after 1 hr by mobility shift assay.
Sequence of Epidermal growth factor receptor (Homo sapiens, UniProt P00533) (P00533 whole entry): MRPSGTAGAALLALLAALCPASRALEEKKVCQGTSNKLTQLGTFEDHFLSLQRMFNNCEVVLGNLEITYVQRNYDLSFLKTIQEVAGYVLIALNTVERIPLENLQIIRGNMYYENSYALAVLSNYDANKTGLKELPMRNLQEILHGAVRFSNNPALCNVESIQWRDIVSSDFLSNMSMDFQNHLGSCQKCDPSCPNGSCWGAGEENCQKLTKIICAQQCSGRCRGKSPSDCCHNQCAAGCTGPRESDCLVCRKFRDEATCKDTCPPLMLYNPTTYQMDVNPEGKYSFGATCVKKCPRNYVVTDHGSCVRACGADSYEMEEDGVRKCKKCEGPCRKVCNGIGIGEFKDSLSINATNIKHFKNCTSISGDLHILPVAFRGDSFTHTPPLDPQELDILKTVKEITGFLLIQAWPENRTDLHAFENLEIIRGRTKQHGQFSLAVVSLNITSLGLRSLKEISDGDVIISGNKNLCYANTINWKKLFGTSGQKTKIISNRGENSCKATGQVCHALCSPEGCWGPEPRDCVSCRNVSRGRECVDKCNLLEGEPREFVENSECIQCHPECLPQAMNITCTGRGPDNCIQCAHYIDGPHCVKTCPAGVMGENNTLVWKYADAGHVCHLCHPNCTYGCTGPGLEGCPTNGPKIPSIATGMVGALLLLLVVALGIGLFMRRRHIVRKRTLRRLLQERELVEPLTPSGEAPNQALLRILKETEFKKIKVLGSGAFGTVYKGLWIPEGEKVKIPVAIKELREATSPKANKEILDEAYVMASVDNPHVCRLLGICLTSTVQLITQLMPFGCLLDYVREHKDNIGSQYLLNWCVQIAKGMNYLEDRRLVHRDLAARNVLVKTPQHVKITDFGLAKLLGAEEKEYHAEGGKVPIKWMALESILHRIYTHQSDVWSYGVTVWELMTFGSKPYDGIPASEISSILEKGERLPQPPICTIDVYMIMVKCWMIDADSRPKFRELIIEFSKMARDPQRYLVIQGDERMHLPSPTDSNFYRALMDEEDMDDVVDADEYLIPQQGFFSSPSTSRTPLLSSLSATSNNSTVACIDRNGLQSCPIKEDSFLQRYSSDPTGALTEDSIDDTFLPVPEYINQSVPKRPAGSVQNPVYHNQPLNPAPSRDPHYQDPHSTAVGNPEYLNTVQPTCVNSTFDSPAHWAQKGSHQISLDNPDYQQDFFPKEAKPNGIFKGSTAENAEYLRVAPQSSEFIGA

Description for HT-29: Cytotoxicity against human HT-29 cells assessed as inhibition of cell proliferation after 72 hrs by MTT assay

`C/C(=N\Nc1ncc(Cl)c(Nc2cccc(NC(=O)/C=C/CN(C)C)c2)n1)c1ccncc1`: the IC50 worked out at 34.9 µM with A549, 6.24 µM in the assay with NCI-H1975 and 10.9 µM in the assay on HT-29.
`C=CC(=O)Nc1cccc(Nc2nc(N/N=C(\C)c3ccc(OC)cc3)ncc2Cl)c1`: the IC50 in the assay with A549 came out at 7.71 µM; in the assay on NCI-H1975, 1.06 µM; with HT-29, 4.56 µM.
In the case of `C/C(=N\Nc1ncc(Cl)c(Nc2cccc(NC(=O)/C=C/CN(C)C)c2)n1)c1ccc(F)cc1F`, the IC50 stood at 5.57 µM in the assay on A549; 0.48 µM in the assay with NCI-H1975; 3.46 µM with HT-29; 0.72 µM in assay [1]; 1.25 µM in assay [2]; 0.82 µM in assay [3]. Moreover, the IC50 in assay [4] is greater than 20 µM.
Turning to `C=CC(=O)Nc1cccc(Nc2nc(NNC(=O)c3ccc(OC)cc3)ncc2Cl)c1`, the IC50 in the assay on A549 worked out at 26 µM; in the assay with NCI-H1975 it was 8.46 µM.
For the compound `C=CC(=O)Nc1cccc(Nc2nc(N/N=C/c3ccc(F)cc3)ncc2Cl)c1`, the IC50 with A549 stood at 10.4 µM; in the assay on NCI-H1975, 0.43 µM; in the assay with HT-29, 6.34 µM; in assay [1], 0.86 µM; in assay [2], 0.57 µM; in assay [3] it was 1.12 µM. Besides, in assay [4], the IC50 is greater than 20 µM.
As for `C=CC(=O)Nc1cccc(Nc2nc(N/N=C(\C)c3ccc(F)cc3F)ncc2Cl)c1`, the IC50 with A549 came to 1.63 µM; in the assay with NCI-H1975 it was 0.3 µM; in the assay on HT-29 it was 4.36 µM; in assay [1] it was 2.27 µM; in assay [4], 11.8 µM.
On to `Nc1cccc(Nc2nc(N/N=C/c3ccc(F)cc3)ncc2Cl)c1`, for which the IC50 is 13.7 µM in the assay with A549, 9.92 µM in the assay with NCI-H1975 and 12.3 µM in the assay on HT-29.
For the compound `COc1ccc(/C=N/Nc2ncc(Cl)c(Nc3cccc(NC(=O)/C=C/CN(C)C)c3)n2)cc1`, the IC50 in the assay with A549 stood at 6.24 µM; in the assay on NCI-H1975, 1.58 µM; with HT-29, 4.82 µM.
As for `COc1ccc(/C(C)=N/Nc2ncc(Cl)c(Nc3cccc(NC(=O)/C=C/CN(C)C)c3)n2)cc1`, the half-maximal inhibitory concentration (IC50) was found to be 7.12 µM in the assay on A549, 0.99 µM in the assay on NCI-H1975 and 6.83 µM with HT-29.
As for `C=CC(=O)Nc1cccc(Nc2nc(N/N=C(\C)c3ccc(F)cc3)ncc2Cl)c1`, the IC50 in the assay with A549 is 8.2 µM; with NCI-H1975 it was 0.39 µM; with HT-29 it was 5.05 µM; in assay [1], 1.68 µM; in assay [2], 1.29 µM; in assay [3], 2.53 µM. The IC50 in assay [4] was greater than 20 µM.
Consider `C/C(=N\Nc1ncc(Cl)c(Nc2cccc(NC(=O)/C=C/CN(C)C)c2)n1)c1ccc(C)cc1`, for which the IC50 with A549 is 10.8 µM; with NCI-H1975 it was 1.37 µM; in the assay on HT-29, 11.8 µM.
Turning to `C=CC(=O)Nc1cccc(Nc2nc(N/N=C(\C)c3ccc(C)cc3)ncc2Cl)c1`, the IC50 was 5.36 µM in the assay on A549; 0.74 µM in the assay with NCI-H1975; 3.21 µM in the assay with HT-29; 5.67 µM in assay [1]; greater than 20 µM in assay [4].
With `C/C(=N\Nc1ncc(Cl)c(Nc2cccc(NC(=O)/C=C/CN(C)C)c2)n1)c1ccc(F)cc1`, the IC50 with A549 came to 8.96 µM; in the assay with NCI-H1975 it was 1.16 µM; in the assay with HT-29, 10.2 µM; in assay [1], 2.35 µM; in assay [4], 15.3 µM.
For the compound `CN(C)C/C=C/C(=O)Nc1cccc(Nc2nc(N/N=C/c3ccncc3)ncc2Cl)c1`, the IC50 with A549 was determined as 47.7 µM; in the assay with NCI-H1975, 4.13 µM; in the assay with HT-29, 25.2 µM.
`C=CC(=O)Nc1cccc(Nc2nc(N/N=C(\C)c3ccncc3)ncc2Cl)c1`: the IC50 in the assay on A549 is 28.7 µM; with NCI-H1975 it was 3.69 µM; in the assay with HT-29, 12.8 µM.
Consider `C=CC(=O)Nc1cccc(Nc2nc(N/N=C/c3ccc(F)cc3F)ncc2Cl)c1`, for which the IC50 in the assay with A549 is 11.2 µM; with NCI-H1975, 0.38 µM; in the assay with HT-29, 4.76 µM; in assay [1] it was 11.6 µM; in assay [4], greater than 20 µM.
`COc1cccc(/C(C)=N/Nc2ncc(Cl)c(Nc3cccc(NC(=O)/C=C/CN(C)C)c3)n2)c1`: the IC50 amounted to 11.4 µM with A549, 0.91 µM in the assay with NCI-H1975 and 3.87 µM in the assay with HT-29.
On to `C/C(=N\Nc1ncc(Cl)c(Nc2cccc(NC(=O)/C=C/CN(C)C)c2)n1)c1cccnc1`, for which the 50% inhibitory concentration (IC50) in the assay on A549 is 17.3 µM; in the assay with NCI-H1975 it was 2.35 µM; with HT-29, 9.66 µM; in assay [1], 4.32 µM; in assay [4], greater than 20 µM.
Consider `C/C(=N\Nc1ncc(Cl)c(Nc2cccc(NC(=O)/C=C/CN(C)C)c2)n1)c1ccccn1`, for which the IC50 with A549 was 0.83 µM; in the assay on NCI-H1975 it was 0.077 µM; in the assay with HT-29, 0.12 µM; in assay [1], 2.38 µM; in assay [4], greater than 20 µM.
Regarding `C=CC(=O)Nc1cccc(Nc2nc(N/N=C/c3cn(Cc4ccccc4)c4ccccc34)ncc2Cl)c1`, the half-maximal inhibitory concentration (IC50) in the assay on A549 is greater than 100 µM; with NCI-H1975 it was 1.35 µM; in the assay on HT-29 it was 11 µM.
For the compound `CN(C)C/C=C/C(=O)Nc1cccc(Nc2nc(N/N=C/c3c[nH]c4ccccc34)ncc2Cl)c1`, the IC50 with A549 is 28.7 µM; with NCI-H1975, 5.45 µM; in the assay on HT-29 it was 9.68 µM; in assay [1] it was greater than 20 µM; in assay [4], greater than 20 µM.
Consider `C=CC(=O)Nc1cccc(Nc2nc(NNC(=O)c3ccc(F)cc3)ncc2Cl)c1`, for which the IC50 with A549 stood at 31 µM; with NCI-H1975 it was 5.31 µM.
Turning to `C=CC(=O)Nc1cccc(Oc2nc(Nc3ccc(N4CCN(C)CC4)cc3OC)ncc2Cl)c1`, the half-inhibitory concentration (IC50) was determined as 1.87 µM in the assay on A549, 0.058 µM with NCI-H1975 and 2.95 µM in the assay on HT-29.
For `C=CC(=O)Nc1cccc(Nc2nc(N/N=C/c3ccccc3F)ncc2Cl)c1`, the IC50 with A549 came out at 6.06 µM; in the assay on NCI-H1975, 0.29 µM; with HT-29, 3.5 µM; in assay [1], 1.51 µM; in assay [2] it was 1.91 µM; in assay [3] it was 4.74 µM. In assay [4], the IC50 was greater than 20 µM.
As for `CN(C)C/C=C/C(=O)Nc1cccc(Nc2nc(N/N=C/c3cn(Cc4ccccc4)c4ccccc34)ncc2Cl)c1`, the IC50 in the assay on A549 was determined as 2.91 µM; in the assay on NCI-H1975, 0.26 µM; in the assay with HT-29 it was 2.12 µM; in assay [1] it was 0.88 µM; in assay [2] it was 0.76 µM; in assay [3] it was 0.79 µM. Also, the IC50 in assay [4] is greater than 20 µM.
For the compound `CN(C)C/C=C/C(=O)Nc1cccc(Nc2nc(N/N=C/c3ccc(F)cc3F)ncc2Cl)c1`, the IC50 was 2.17 µM in the assay with A549; 0.17 µM in the assay on NCI-H1975; 2.92 µM with HT-29; 2.52 µM in assay [1]; 5.11 µM in assay [2]; 2.51 µM in assay [3]. Besides, the IC50 in assay [4] is greater than 20 µM.
Consider `C=CC(=O)Nc1cccc(Nc2nc(N/N=C(\C)c3cccc(OC)c3)ncc2Cl)c1`, for which the IC50 in the assay on A549 stood at 10.3 µM; in the assay with NCI-H1975, 1.19 µM; in the assay with HT-29 it was 8.99 µM.
